Measurements published in US20140093513A1, “METHODS OF LOWERING PROPROTEIN CONVERSATE SUBTILISIN/KEXIN TYPE 9 (PCSK9)” (Catabasis Pharmaceuticals, Inc., priority 2012, published 2014).

What was measured:
ApoE3Leiden mice = test: Plasma cholesterol and triglycerides in ApoE3Leiden mice on Western type diet, 2 and 4 weeks of treatment; type: in vivo; conditions: female APOE*3Leiden mice, WTD, I-8 0.75% w/w, atorvastatin 0.0015% w/w in diet
Procedure: The study was conducted using female APOE*3Leiden mice (groups of each n=10) and one untreated reference control group on chow (n=5). To induce dyslipidemia, a high cholesterol Western type diet containing 1% cholesterol, 15% cacao butter, 40.5% sucrose and 1% corn oil (WTD) was fed to the mice for a total experimental period of 20 weeks (of which 4 weeks are a run-in period).
The dyslipidemic mice were grouped on the basis of plasma cholesterol at t=0 assayed in 4 h fasting blood. Mice with low cholesterol after the run-in period were excluded so that homogenous experimental groups were obtained. A group of reference mice (n=5) remained on a chow diet during the complete study period (normolipidemic reference mice).
This mix was then added to the master mix (containing the rest of the ingredients) and mixed thoroughly. The diet was frozen to −20° C. On the subsequent day, the diet was broken into small pellets (approx 5 g per piece) and freeze dried, and stored in vacuum sealed bags (approx 500 g) at −20° C. until use. The diets were refreshed daily and unused diet was discarded.
1) Body weight at −4, 0, 2, 4 weeks 2) Food intake (g/day/mouse) at 0, 2, 4 weeks (per cage) 3) Plasma total cholesterol at −4, 0, 2, 4 weeks (individually) 4) Plasma triglycerides at −4, 0, 2, 4 weeks (individually) 5) Lipoprotein profiles at 0 (pool of all animals) and 4 weeks (cholesterol distribution over VLDL, LDL and HDL-sized particles, analysis on group level).
EDTA plasma was collected in weeks −4, 0, 2 and 4 weeks. Plasma cholesterol, plasma triglyceride levels and lipoprotein profileswere assayed immediately in fresh plasma.

[1] = tested on: Zucker fa/fa Rat model of Dyslipidemia; test: Plasma triglyceride level in the Zucker fa/fa rat model of dyslipidemia; type: in vivo; conditions: Zucker rats, po qd, I-8 at 10, 30, 100 and 300 mg/kg; niacin/EPA 100/200 mg/kg; day 4 fed blood sample, FIG. 3
Procedure: Male Zucker rats (HsdHlr: Zucker-Lepr̂fa) between 8-10 weeks of age were purchased from Harlan and maintained on Purina Rodent Diet (5001) for the duration of the study. Animals were randomized and assigned to treatment arms based on body weight and plasma triglyceride (TG) levels (n=8). Inclusion criteria for the study include body weight >300 grams and fed TG levels in plasma >800 mg/dL. Dosing will be initiated on day 1 and continue through day 5. Dosing will be daily (qd) by oral gavage (po) for all treatment arms (Compound I-8 was administered orally at 4 different doses, 10, 30, 100 and 300 mg/kg; in addition, a combination of niacin/EPA in a ratio of 100/200 mg/kg was also employed). Body weights will be measured for all rats on days 1 through 5. On day 4, a blood sample (fed) will be collected from each rat, processed for plasma and stored at −80° C. Plasma triglyceride level was determined from commercial kits using standard protocols. […] Because compound I-8 was able to lower fed plasma triglyceride, it is useful to treat dyslipidemia as well as other diseases such as type I hyperlipoproteinemia and type 5 hyperlipoproteinemia.

PCSK9 = PCSK9 secretion assay in HepG2 cells (PCSK9 ELISA); type: cell-based
How it was run: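 HepG2 cells in serum-free DMEM with compound added in FBS (ethanol-matched) and incubated 16 hours, in triplicate. Secreted PCSK9 in supernatant measured by ELISA (A450), with AlamarBlue viability check. IC50 obtained from at least 6 concentrations.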

ApoE*3 Leiden mice = test: Plasma lipids and liver weight of ApoE*3 Leiden mice on Western type diet, 16 weeks of treatment; type: in vivo; conditions: I-8 in WTD at 7.5 g/kg
Procedure: The same experimental design used in example 6 was used. Two treatment groups were used (n=15). The control animals were kept on a Western type diet (WTD) consisting of 1% cholesterol, 15% cacao butter, 40.5% sucrose, and 1% corn oil. For the treatment group, compound I-8 was administered in the above WTD at a ratio of 7.5 g/kg. Animals were maintained on the WTD or treatment group for 16 weeks. At the conclusion of the study, plasma cholesterol and triglyceride levels were recorded, as well as the weight of the liver. There was a significant decrease in plasma cholesterol, triglyceride levels as well as liver weight in the treatment group. After 16 weeks of treatment, the cholesterol level of the treatment group was 420 mg/dL, compared with a level of 750 mg/dL for the control group; the triglyceride level was 110 mg/dL, compared with a level of 160 mg/dL for the control group.

SMILES: CC/C=C\C/C=C\C/C=C\C/C=C\C/C=C\CCCC(=O)NCCNC(=O)c1cccnc1 [Compound I-8, N-(2-(5Z,8Z,11Z,14Z,17Z)-eicosa-5,8,11,14,17-pentaenamidoethyl)nicotinamide]
- plasma cholesterol at t=2 weeks (ApoE3Leiden mice; 2 weeks of treatment, FIG. 4): statistically significant reduction
- plasma cholesterol after 4 weeks of treatment (ApoE3Leiden mice; 4 weeks, FIG. 5): Comparable level of cholesterol reduction
- plasma triglyceride levels after 4 weeks of treatment (ApoE3Leiden mice; 4 weeks, FIG. 6): significant reduction
- fed plasma triglyceride level [1]: dose dependent decrease
- PCSK9 levels in HepG2 cells incubated with atorvastatin (PCSK9; HepG2 cells incubated with 10 μM of atorvastatin along with the test article, FIG. 2): decrease PCSK9 levels in a dose response manner
- IC50 (PCSK9; HepG2 cells, 16 hours incubation, at least 6 concentrations): < 25 µM
- lowering of PCSK9 (PCSK9; HepG2 cells, at 25 and 50 μM, FIG. 1): significant lowering of PCSK9
- liver weight (ApoE*3 Leiden mice; FIG. 7): statistically significant drop
- triglyceride level after 16 weeks of treatment (ApoE*3 Leiden mice; control group 160 mg/dL): 110 mg/dL
- cholesterol level after 16 weeks of treatment (ApoE*3 Leiden mice; control group 750 mg/dL): 420 mg/dL
